According to patent US8716231B2, “Use of benzo-fused heterocycle sulfamide derivatives for the treatment of pain” (Janssen Pharmaceutica NV, priority 2005, dated 2014):

test system: not given; test: not given; conditions: not given

First: NS(=O)(=O)NCC1CCc2ccccc2O1 (stereo not drawn)
Second: NS(=O)(=O)NCCC1COc2ccccc2O1 (stereo not drawn)
The melting point of the first is lower: 100 to 101 °C for the first, 101 to 103 °C for the second.

Compared with `CN(CC1COc2ccccc2O1)S(N)(=O)=O` (stereo not drawn), `CN(C)S(=O)(=O)NCC1COc2ccccc2O1` (stereo not drawn) is lower in melting point: 97 to 98 °C for the first, 76 to 78 °C for the second.

`NS(=O)(=O)NC[C@H]1COc2cc(Cl)c(Cl)cc2O1` showed a melting point of 119 to 121 °C.

test system: Taxol®-induced mechanical allodynia; test: Taxol Induced Peripheral Neuropathy Model (pilot), Von Frey testing; format: in vivo, Sprague-Dawley rats; conditions: Taxol 2 mg/kg i.p. days 1, 3, 5, 7 + HPMC vehicle; day 12 (baseline 16.42±2.14 g)
Method: In addition, the compound's effects on spontaneous locomotor activity was measured.
The animals were housed in polycarbonate plastic cages, 2 animals per cage, at a temperature of 18-26° C., 30-70% humidity, 12-hour light/dark cycle, with food and water available ad libityum.
On days 1, 3, 5, and 7, the rats received an ip (intraperitoneal) injection of Taxol® (2 mg/kg).
Two behavioral tests were performed: measurement of tactile sensitivity and spontaneous locomotor activity. At baseline and on Days 5 and 12 post-Taxol® injection, the animals underwent Von Frey testing for mechanical allodynia (according to the procedure as described in Chaplan, S R, Bach, F W, Pogrel, J W, Chung, J M, Yaksh, T L. Quantitative assessment of tactile allodynia in the rat paw. J Neurosci Meth, 53:55-63, 1994). Tactile sensitivity (i.e. mechanical allodynia) was measured using calibrated filaments touched to the plantar surface of the affected limb to determine paw withdrawal threshold. Briefly, the rats were placed in a Plexiglas cage with a wire mesh bottom and allowed to acclimate for 10 minutes. Once the animals settled, the plantar surface of the right hind paw was touched with a 2.0 g von Frey filament. […] Data were analyzed using two-way ANOVA, one-way ANOVA and Dunnett's test, with statistical significance at p<0.05.

For `CC(=O)O[C@H]1C(=O)[C@@]2(C)[C@H]([C@H](OC(=O)c3ccccc3)[C@]3(O)C[C@H](OC(=O)[C@H](O)[C@@H](NC(=O)c4ccccc4)c4ccccc4)C(C)=C1C3(C)C)[C@]1(OC(C)=O)CO[C@@H]1C[C@@H]2O` [Taxol®, paclitaxel, reference compound], the “paw withdrawal threshold (mechanical allodynia)” value was 12.11 ± 4.92 g.
